Reference: patent US8883782B2, “Spiro-tetracyclic ring compounds as beta-secretase modulators and methods of use” (Amgen Inc., priority 2010, dated 2014)

What was measured:
[1] = test system: Aβ40 in conditioned medium of cells stably expressing Amyloid Precursor Protein (APP); experiment: In vitro BACE cell-based assay (Aβ40 in conditioned medium, sandwich ELISA); details: Homo sapiens, HEK293, average IC50; read-out: HEK cell assay
Outline: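 Secreted Aβ40 is captured with pAb40 and detected with biotinylated 6E10, read by europium time-resolved fluorescence. IC50 comes from percent inhibition versus concentration.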

[2] = molecular target: Beta Secretase enzyme (BACE) (Homo sapiens, UniProt P56817); experiment: In vitro enzymatic BACE FRET (fluorescence resonance energy transfer) assay; type: biochemical; details: average IC50, enzyme assay; read-out: BACE 1 FRET assay
Outline: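 A peptide bearing a fluorophore and quencher across the cleavage site serves as substrate at 50 nM. Reactions proceed one hour in acidic acetate buffer (0.05 M, pH 4.2) containing 10% DMSO final and 100 uM genapol, then are terminated with Tris and read fluorimetrically.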

Sequence of Beta Secretase enzyme (BACE) (P56817 46-501, species assumed): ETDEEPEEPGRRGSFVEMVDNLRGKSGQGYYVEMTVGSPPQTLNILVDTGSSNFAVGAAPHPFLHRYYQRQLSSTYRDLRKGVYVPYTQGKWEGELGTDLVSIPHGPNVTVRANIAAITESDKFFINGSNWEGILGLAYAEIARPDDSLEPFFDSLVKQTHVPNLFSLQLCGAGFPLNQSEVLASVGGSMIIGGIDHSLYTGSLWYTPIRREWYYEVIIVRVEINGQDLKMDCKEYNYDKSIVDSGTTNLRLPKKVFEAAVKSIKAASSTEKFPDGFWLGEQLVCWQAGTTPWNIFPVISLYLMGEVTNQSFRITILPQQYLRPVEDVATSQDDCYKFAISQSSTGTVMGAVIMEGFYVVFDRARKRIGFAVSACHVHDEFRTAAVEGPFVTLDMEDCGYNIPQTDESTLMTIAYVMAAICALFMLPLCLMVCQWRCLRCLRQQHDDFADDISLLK

Compound	IC50 [1] [nM]	IC50 [2] [nM]
CC1(C#Cc2cc3c(cn2)Oc2ccc(-c4cccc(Cl)c4)cc2[C@@]32COC(N)=N2)COC1 [Example 157, (5S)-7-(3-chlorophenyl)-3-((3-methyl-3-oxetanyl)ethynyl)spiro[chromeno[2,3-c]pyridine-5,4′-[1,3]oxazol]-2′-amine]	30.2	0.8
CC1(C#Cc2cc3c(cn2)Oc2ccc(-c4cc(Cl)cnc4F)cc2[C@@]32COC(N)=N2)COC1 [Example 158, (5S)-7-(5-chloro-2-fluoro-3-pyridinyl)-3-((3-methyl-3-oxetanyl)ethynyl)spiro[chromeno[2,3-c]pyridine-5,4′-[1,3]oxazol]-2′-amine]	11.6	1
NC1=N[C@@]2(CO1)c1cc(C#CC3CC3)ccc1Oc1cnc(C3=CCOCC3)cc12 [Example 159, (5S)-7-(cyclopropylethynyl)-3-(3,6-dihydro-2H-pyran-4-yl)spiro[chromeno[2,3-c]pyridine-5,4′-[1,3]oxazol]-2′-amine]	84	4.9
CC1(C#Cc2ccc3c(c2)[C@@]2(COC(N)=N2)c2cc(C4=CCOCC4)ncc2O3)COC1 [Example 160, (5S)-3-(3,6-dihydro-2H-pyran-4-yl)-7-((3-methyl-3-oxetanyl)ethynyl)spiro[chromeno[2,3-c]pyridine-5,4′-[1,3]oxazol]-2′-amine]	91	22
CC(C)(C)C#Cc1ccc2c(c1)[C@@]1(COC(N)=N1)c1cc(C3=CCOCC3)ncc1O2 [Example 161, (5S)-3-(3,6-dihydro-2H-pyran-4-yl)-7-(3,3-dimethyl-1-butyn-1-yl)spiro[chromeno[2,3-c]pyridine-5,4′-[1,3]oxazol]-2′-amine]	108	9.7
CC(C)(C)C#Cc1ccc2c(c1)[C@@]1(COC(N)=N1)c1cc(-c3ccnc(F)c3)ncc1O2 [Example 162, (5S)-7-(3,3-dimethyl-1-butyn-1-yl)-3-(2-fluoro-4-pyridinyl)spiro[chromeno[2,3-c]pyridine-5,4′-[1,3]oxazol]-2′-amine]	775	23
CC1(C#Cc2ccc3c(c2)[C@@]2(COC(N)=N2)c2cc(N4CCC(F)(F)C4)ncc2O3)COC1 [Example 163, (5S)-3-(3,3-difluoro-1-pyrrolidinyl)-7-((3-methyl-3-oxetanyl)ethynyl)spiro[chromeno[2,3-c]pyridine-5,4′-[1,3]oxazol]-2′-amine]	124	17.4
CC1(C#Cc2cc3c(cn2)Oc2ccc(-c4cccc(C#N)c4)cc2[C@@]32COC(N)=N2)COC1 [Example 164, 3-((5S)-2′-amino-3-((3-methyl-3-oxetanyl)ethynyl)spiro[chromeno[2,3-c]pyridine-5,4′-[1,3]oxazol]-7-yl)benzonitrile]	18.9	2.3
NC1=N[C@@]2(CO1)c1cc(-c3cccc(Cl)c3)ccc1Oc1ncc(-c3cnccn3)cc12 [Example 166, (5S)-7-(3-chlorophenyl)-3-(2-pyrazinyl)spiro[chromeno[2,3-b]pyridine-5,4′-[1,3]oxazol]-2′-amine]	17.7	1.8
CC1(C#Cc2cnc3c(c2)[C@]2(COC(N)=N2)c2cc(-c4ccc(F)nc4)ccc2O3)COC1 [Example 167, (5S)-7-(6-fluoro-3-pyridinyl)-3-((3-methyl-3-oxetanyl)ethynyl)spiro[chromeno[2,3-b]pyridine-5,4′-[1,3]oxazol]-2′-amine]	13.9	2.6
CC1(C#Cc2cnc3c(c2)[C@]2(COC(N)=N2)c2cc(-c4cnccn4)ccc2O3)COC1 [Example 168, (5S)-3-((3-methyl-3-oxetanyl)ethynyl)-7-(2-pyrazinyl)spiro[chromeno[2,3-b]pyridine-5,4′-[1,3]oxazol]-2′-amine]	14.5	3.3
N#Cc1cccc(-c2ccc3c(c2)[C@@]2(COC(N)=N2)c2cc(C4=CCOCC4)cnc2O3)c1 [Example 169, 3-((5S)-2′-amino-3-(3,6-dihydro-2H-pyran-4-yl)spiro[chromeno[2,3-b]pyridine-5,4′-[1,3]oxazol]-7-yl)benzonitrile]	4.5	1.3
NC1=N[C@@]2(CO1)c1cc(-c3cccc(Cl)c3F)ccc1Oc1ncc(C3=CCOCC3)cc12 [Example 170, (5S)-7-(3-chloro-2-fluorophenyl)-3-(3,6-dihydro-2H-pyran-4-yl)spiro[chromeno[2,3-b]pyridine-5,4′-[1,3]oxazol]-2′-amine]	18.3	1.5
NC1=N[C@@]2(CO1)c1cc(-c3cc(Cl)ccc3F)ccc1Oc1ncc(C3=CCCOC3)cc12 [Example 172, (5S)-7-(5-chloro-2-fluorophenyl)-3-(5,6-dihydro-2H-pyran-3-yl)spiro[chromeno[2,3-b]pyridine-5,4′-[1,3]oxazol]-2′-amine]	5.3	0.4
NC1=N[C@@]2(CO1)c1cc(-c3cccc(Cl)c3)ccc1Oc1ncc(C3=CCCOC3)cc12 [Example 173, (5S)-7-(3-chlorophenyl)-3-(5,6-dihydro-2H-pyran-3-yl)spiro[chromeno[2,3-b]pyridine-5,4′-[1,3]oxazol]-2′-amine]	5	0.6
NC1=N[C@@]2(CO1)c1cc(-c3cccnc3F)ccc1Oc1ncc([C@@H]3CCCOC3)cc12 [Example 174, (5S)-7-(2-fluoro-3-pyridinyl)-3-((3S)-tetrahydro-2H-pyran-3-yl)spiro[chromeno[2,3-b]pyridine-5,4′-[1,3]oxazol]-2′-amine]	40	12.1
CC1(/C=C/c2cnc3c(c2)[C@]2(COC(N)=N2)c2cc(-c4cccnc4F)ccc2O3)COC1 [Example 175, (5S)-7-(2-fluoro-3-pyridinyl)-3-((E)-2-(3-methyl-3-oxetanyl)ethenyl)spiro[chromeno[2,3-b]pyridine-5,4′-[1,3]oxazol]-2′-amine]	1	0.5
CC1(/C=C/c2cnc3c(c2)[C@]2(COC(N)=N2)c2cc(-c4ccc(F)nc4)ccc2O3)COC1 [Example 176, (5S)-7-(6-fluoro-3-pyridinyl)-3-((E)-2-(3-methyl-3-oxetanyl)ethenyl)spiro[chromeno[2,3-b]pyridine-5,4′-[1,3]oxazol]-2′-amine]	3.2	1.2
CC1(/C=C/c2cnc3c(c2)[C@]2(COC(N)=N2)c2cc(-c4cc(Cl)ccc4F)ccc2O3)COC1 [Example 177, (5S)-7-(5-chloro-2-fluorophenyl)-3-((E)-2-(3-methyl-3-oxetanyl)ethenyl)spiro[chromeno[2,3-b]pyridine-5,4′-[1,3]oxazol]-2′-amine]	1.8	0.4
NC1=N[C@@]2(CO1)c1cc(C#CC3CC3)ccc1Oc1ncc(N3CCC(F)(F)C3)cc12 [Example 178, (5S)-7-(cyclopropylethynyl)-3-(3,3-difluoro-1-pyrrolidinyl)spiro[chromeno[2,3-b]pyridine-5,4′-[1,3]oxazol]-2′-amine]	14.3	3.1
CC1(C)CN(c2cnc3c(c2)[C@]2(COC(N)=N2)c2cc(C#CC4CC4)ccc2O3)CCO1 [Example 179, (5S)-7-(cyclopropylethynyl)-3-(2,2-dimethyl-4-morpholinyl)spiro[chromeno[2,3-b]pyridine-5,4′-[1,3]oxazol]-2′-amine]	64.1	11.1
Cn1ccc(-c2cnc3c(c2)[C@]2(COC(N)=N2)c2cc(C#CC(C)(C)C)ccc2O3)n1 [Example 180, (5S)-7-(3,3-dimethyl-1-butyn-1-yl)-3-(1-methyl-1H-pyrazol-3-yl)spiro[chromeno[2,3-b]pyridine-5,4′-[1,3]oxazol]-2′-amine]	165	49.5
NC1=N[C@@]2(CO1)c1cc(C#CC3CC3)ccc1Oc1ncc(N3CCC(F)(F)CC3)cc12 [Example 181, (5S)-7-(cyclopropylethynyl)-3-(4,4-difluoro-1-piperidinyl)spiro[chromeno[2,3-b]pyridine-5,4′-[1,3]oxazol]-2′-amine]	27.1	5.7
CC1(C)CCN(c2cnc3c(c2)[C@]2(COC(N)=N2)c2cc(C#CC4CC4)ccc2O3)C1 [Example 182, (5S)-7-(cyclopropylethynyl)-3-(3,3-dimethyl-1-pyrrolidinyl)spiro[chromeno[2,3-b]pyridine-5,4′-[1,3]oxazol]-2′-amine]	22	3.1
Cn1ccc(-c2cnc3c(c2)[C@]2(COC(N)=N2)c2cc(C#CC4CC4)ccc2O3)n1 [Example 183, (5S)-7-(cyclopropylethynyl)-3-(1-methyl-1H-pyrazol-3-yl)spiro[chromeno[2,3-b]pyridine-5,4′-[1,3]oxazol]-2′-amine]	189	51.5
CC(C)CSc1cnc2c(c1)[C@]1(COC(N)=N1)c1cc(-c3cccnc3)ccc1O2 [Example 184, (5S)-3-((2-methylpropyl)sulfanyl)-7-(3-pyridinyl)spiro[chromeno[2,3-b]pyridine-5,4′-[1,3]oxazol]-2′-amine]	294	14.1
COc1ccc2c(c1)[C@@]1(COC(N)=N1)c1cc(SCc3ccccc3)cnc1O2 [Example 185, (5S)-3-(benzylsulfanyl)-7-methoxyspiro[chromeno[2,3-b]pyridine-5,4′-[1,3]oxazol]-2′-amine]	10000	5060
CC1(C#Cc2cnc3c(c2)[C@]2(COC(N)=N2)c2cc(-c4cncc(Cl)c4)ccc2O3)COC1 [Example 186, (5S)-7-(5-chloro-3-pyridinyl)-3-((3-methyl-3-oxetanyl)ethynyl)spiro[chromeno[2,3-b]pyridine-5,4′-[1,3]oxazol]-2′-amine]	3	0.5
CC1(C#Cc2cnc3c(c2)[C@]2(COC(N)=N2)c2cc(-c4cncc(C(F)(F)F)c4)ccc2O3)COC1 [Example 187, (5S)-3-((3-methyl-3-oxetanyl)ethynyl)-7-(5-(trifluoromethyl)-3-pyridinyl)spiro[chromeno[2,3-b]pyridine-5,4′-[1,3]oxazol]-2′-amine]	11.6	2.9
